In article PMC10657792, “Downstream Allosteric Modulation of NMDA Receptors by 3-Benzazepine Derivatives” (Molecular Neurobiology, 2023):
Several values for one entry are separate records, joined by “and”; a condition that tells them apart may be missing. Identical values can stand only once.

What was measured:
[1] = test system: GluN2B subunits; settings: cited from earlier work
[2] = test system: GluN2B; parameters: method as in PMID 35710735; settings: PET, non-human primates; cited from earlier work
[3] = biological target: GluN1a wt/ GluN2B F114A (Rattus norvegicus, UniProt P35439+Q00960, F114A); assay: TEVC recording in X. laevis oocytes, GluN2B mutant screening; type: cell-based; settings: GluN1-1a/F114A, individual oocytes
[4] = biological target: GluN1a wt/ GluN2B E236A (Rattus norvegicus, UniProt P35439+Q00960, E236A); assay: as above; type: cell-based; settings: GluN1-1a/E236A, individual oocytes
Sequence of GluN1a wt/ GluN2B E236A (Q00960 27-1482 E236A, other chains not shown): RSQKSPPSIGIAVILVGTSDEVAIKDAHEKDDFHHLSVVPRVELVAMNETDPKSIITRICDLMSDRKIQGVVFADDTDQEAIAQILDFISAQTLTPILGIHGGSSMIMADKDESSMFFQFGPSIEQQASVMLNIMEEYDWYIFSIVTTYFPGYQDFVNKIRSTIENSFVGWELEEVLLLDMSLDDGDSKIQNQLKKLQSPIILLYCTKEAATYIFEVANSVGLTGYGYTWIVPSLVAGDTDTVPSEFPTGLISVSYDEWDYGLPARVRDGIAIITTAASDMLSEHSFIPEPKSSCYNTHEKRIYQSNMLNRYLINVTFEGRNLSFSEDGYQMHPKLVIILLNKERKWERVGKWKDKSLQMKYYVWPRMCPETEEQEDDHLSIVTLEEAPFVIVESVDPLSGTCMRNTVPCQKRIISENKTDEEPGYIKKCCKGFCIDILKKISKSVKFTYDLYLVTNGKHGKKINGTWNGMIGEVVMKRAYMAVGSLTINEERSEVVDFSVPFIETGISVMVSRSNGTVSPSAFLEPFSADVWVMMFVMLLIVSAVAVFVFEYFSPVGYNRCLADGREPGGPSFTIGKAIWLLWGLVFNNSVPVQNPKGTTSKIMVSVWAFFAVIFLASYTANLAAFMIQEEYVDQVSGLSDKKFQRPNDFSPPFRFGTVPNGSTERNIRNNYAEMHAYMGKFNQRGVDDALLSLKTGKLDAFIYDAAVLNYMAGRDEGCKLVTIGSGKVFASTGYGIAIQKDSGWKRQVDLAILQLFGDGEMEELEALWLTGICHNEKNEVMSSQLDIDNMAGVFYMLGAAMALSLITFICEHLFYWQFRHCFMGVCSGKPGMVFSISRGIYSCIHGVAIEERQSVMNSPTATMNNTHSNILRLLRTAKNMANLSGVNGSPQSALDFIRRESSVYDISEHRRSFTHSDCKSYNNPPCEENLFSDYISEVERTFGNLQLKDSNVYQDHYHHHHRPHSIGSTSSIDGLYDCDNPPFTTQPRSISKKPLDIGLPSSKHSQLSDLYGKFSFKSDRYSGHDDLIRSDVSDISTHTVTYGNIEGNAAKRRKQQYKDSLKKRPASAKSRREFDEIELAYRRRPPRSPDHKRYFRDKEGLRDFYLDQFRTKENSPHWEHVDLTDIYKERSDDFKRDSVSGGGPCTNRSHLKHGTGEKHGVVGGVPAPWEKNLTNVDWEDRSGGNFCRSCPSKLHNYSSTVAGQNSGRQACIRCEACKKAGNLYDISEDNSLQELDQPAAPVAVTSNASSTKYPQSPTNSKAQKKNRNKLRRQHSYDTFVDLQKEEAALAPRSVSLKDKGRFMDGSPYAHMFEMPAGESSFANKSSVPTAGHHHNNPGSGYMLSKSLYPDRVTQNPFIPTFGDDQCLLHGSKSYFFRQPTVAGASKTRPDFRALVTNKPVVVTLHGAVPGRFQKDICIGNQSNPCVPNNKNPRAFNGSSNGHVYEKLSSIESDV

[5] = biological target: GluN1a wt/ GluN2B wt (Rattus norvegicus, UniProt P35439+Q00960); assay: Ligand binding assay with [3H]ifenprodil, membranes of transfected HEK cells; settings: 5 nM radioligand, non-specific binding with 10 µM unlabeled ifenprodil, 37 °C; single replicate
Sequence of GluN1a wt/ GluN2B wt (Q00960 27-1482, other chains not shown): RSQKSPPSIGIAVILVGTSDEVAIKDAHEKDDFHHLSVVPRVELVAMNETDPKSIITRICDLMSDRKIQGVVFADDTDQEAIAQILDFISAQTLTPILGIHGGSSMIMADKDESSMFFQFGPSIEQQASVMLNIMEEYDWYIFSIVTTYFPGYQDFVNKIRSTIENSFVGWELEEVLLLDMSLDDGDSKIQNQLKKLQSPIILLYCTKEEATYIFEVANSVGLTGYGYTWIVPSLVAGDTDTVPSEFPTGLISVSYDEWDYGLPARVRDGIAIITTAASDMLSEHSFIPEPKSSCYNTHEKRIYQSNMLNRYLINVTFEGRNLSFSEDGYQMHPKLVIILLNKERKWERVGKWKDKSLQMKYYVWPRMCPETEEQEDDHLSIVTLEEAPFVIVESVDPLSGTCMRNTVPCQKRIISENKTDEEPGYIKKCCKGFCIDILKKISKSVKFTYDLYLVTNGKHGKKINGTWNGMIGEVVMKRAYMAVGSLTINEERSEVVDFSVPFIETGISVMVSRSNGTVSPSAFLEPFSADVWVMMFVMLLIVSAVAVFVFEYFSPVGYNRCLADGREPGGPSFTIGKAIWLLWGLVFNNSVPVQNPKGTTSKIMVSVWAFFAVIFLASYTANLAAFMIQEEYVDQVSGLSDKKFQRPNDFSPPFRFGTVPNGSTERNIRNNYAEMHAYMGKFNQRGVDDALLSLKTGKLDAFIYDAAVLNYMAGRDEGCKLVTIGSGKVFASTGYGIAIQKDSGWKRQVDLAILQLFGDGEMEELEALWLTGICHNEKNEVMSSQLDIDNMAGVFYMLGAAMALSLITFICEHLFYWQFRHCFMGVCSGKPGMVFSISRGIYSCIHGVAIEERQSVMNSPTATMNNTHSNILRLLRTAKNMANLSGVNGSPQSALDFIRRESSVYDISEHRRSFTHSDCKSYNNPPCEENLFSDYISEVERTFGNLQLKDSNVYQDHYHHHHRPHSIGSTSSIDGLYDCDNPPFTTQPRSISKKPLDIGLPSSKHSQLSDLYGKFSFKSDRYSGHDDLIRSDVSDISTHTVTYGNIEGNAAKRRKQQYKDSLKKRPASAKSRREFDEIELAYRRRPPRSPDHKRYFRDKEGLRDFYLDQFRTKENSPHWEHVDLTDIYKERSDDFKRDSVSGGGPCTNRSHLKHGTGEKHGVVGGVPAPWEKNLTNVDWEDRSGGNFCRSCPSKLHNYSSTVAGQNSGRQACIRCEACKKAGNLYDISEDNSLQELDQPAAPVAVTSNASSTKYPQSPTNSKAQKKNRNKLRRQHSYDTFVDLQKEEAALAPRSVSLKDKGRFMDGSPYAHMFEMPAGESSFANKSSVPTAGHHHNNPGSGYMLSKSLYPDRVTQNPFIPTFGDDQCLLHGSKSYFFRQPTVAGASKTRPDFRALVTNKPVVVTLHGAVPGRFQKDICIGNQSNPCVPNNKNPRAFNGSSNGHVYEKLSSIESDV
Method: (§1) One day prior to transfection, human embryonic kidney (HEK) cells were reseeded into T75 flasks, aiming for a confluency of 70% after 24 h. HEK cells were then transiently co-transfected with the cDNAs (GluN1-1a/ eGFP, GluN1-1b/eGFP, GluN2B/pDsRed2-N1, GluN2B F176A/pDsRed2-N1, and GluN2B F194A/pDsRed2-N1) encoding the NMDAR subunits using Lipofectamine 3000 (Thermo Fisher Scientific, Germany) according to the manufacturer’s instructions. Approximately 60 h after transfection, the cells were resuspended in Dulbecco’s phosphate-buffered saline (PBS), and the positively double transfected cells were sorted using fluorescence-activated cell sorting (FACS). The membrane preparation, the protein yield determination, and ligand binding assay were performed as previously described. Briefly, the affinity for NMDAR was evaluated using a receptor binding assay, in which racemic […] (60 Ci/mmol; BIOTREND, Cologne, Germany), served as radioligand. The membrane fragments of NMDAR expressing HEK cells were incubated with 5 nM [^3H]ifenprodil and TRIS/EDTA-buffer (5 mM TRIS/1 mM EDTA, pH 7.5) at 37 °C. To evaluate the unspecific binding, 10 µM unlabeled ifenprodil was used.

[6] = biological target: GluN1a wt/ GluN2B F194A (Rattus norvegicus, UniProt P35439+Q00960, F194A); assay: as above; settings: 5 nM radioligand, non-specific binding with 10 µM unlabeled ifenprodil, 37 °C; single replicate
Method: as §1

[7] = biological target: GluN1b wt/ GluN2B wt (Rattus norvegicus, UniProt P35439+Q00960); assay: as above; settings: 5 nM radioligand, non-specific binding with 10 µM unlabeled ifenprodil, 37 °C; single replicate
Sequence of GluN1b wt/ GluN2B wt (Q00960 27-1482, other chains not shown): as above
Method: as §1

[8] = biological target: GluN1b wt/ GluN2B F176A (Rattus norvegicus, UniProt P35439+Q00960, F176A); assay: as above; settings: 5 nM radioligand, non-specific binding with 10 µM unlabeled ifenprodil, 37 °C; single replicate
Method: as §1

[9] = biological target: GluN1b wt/ GluN2B F194A (Rattus norvegicus, UniProt P35439+Q00960, F194A); assay: as above; settings: 5 nM radioligand, non-specific binding with 10 µM unlabeled ifenprodil, 37 °C; single replicate
Method: as §1

[10] = biological target: GluN1a wt/ GluN2B F176A (Rattus norvegicus, UniProt P35439+Q00960, F176A); assay: as above; settings: 5 nM radioligand, non-specific binding with 10 µM unlabeled ifenprodil, 37 °C; single replicate
Method: as §1

[11] = compound concentration 0.1 μM, 0.1 µM
[12] = compound concentration 1 μM, 1 µM
[13] = compound concentration 10 μM, 10 µM
[14] = compound concentration 30 μM, 30 µM

Oc1ccc2c(c1)CCN(CCCCc1ccccc1[18F])CC2O (racemic) [^18F-OF-NB1]
blood–brain barrier permeability [1]: high
cerebellar accumulation ([1]; ex vivo biodistribution assays): high cerebellar accumulation

Oc1ccc2c(c1)CCN(CCCCc1ccccc1[18F])C[C@@H]2O [(R)-^18F-OF-NB1]
affinity in vivo relative to the S-enantiomer [2]: four- to five-fold higher
cingulate cortex accumulation [2]: high cingulate cortex accumulation
uptake [2]: high uptake
washout kinetics [2]: slow washout kinetics

Oc1ccc2c(c1)CCN(CCCCc1ccccc1F)C[C@@H]2O [OF-NB1 R]
inhibition (%) [3, 11]: 0.07918% and 0.5179% and 0.211%
inhibition (%) [3, 12]: 29.9386% and 5.971% and 22.998% and 16.9662%
inhibition (%) [3, 13]: 58.532% and 61.9095% and 61.1489% and 64.1685%
inhibition (%) [3, 14]: 87.8657% and 75.6136% and 78.22% and 87.6368%
inhibition (%) ([4]; compound concentration 0.001 μM, 0.001 µM): 0.5349% and -0.3615% and 0.07864% and -0.02364% and -0.08675%
inhibition (%) ([4]; compound concentration 0.01 μM, 0.01 µM): 2.174% and 5.182% and 1.1167% and -0.03546% and -0.1952%
inhibition (%) [4, 11]: 22.83% and 11.3477% and 24.7562% and 0% and 0.08675%
inhibition (%) [4, 12]: 62.3641% and 56.7584% and 57.7225% and 68.2307% and 52.0278%
inhibition (%) [4, 13]: 74.0293% and 68.3069% and 74.5203% and 84.919% and 71.8716%
inhibition (%) [4, 14]: 82.623% and 76.0795% and 83.6584% and 89.363% and 81.8261%

CC(C(O)c1ccc(O)cc1)N1CCC(Cc2ccccc2)CC1 (stereo not shown) [[^3H]ifenprodil, ifenprodil]
specific binding (cpm) [5]: 25.5 cpm and 9.5 cpm and 4.5 cpm
specific binding (cpm) [6]: 3.5 cpm and 2.5 cpm and -1.5 cpm
specific binding (cpm) [7]: 4.5 cpm and 5.5 cpm and 11.5 cpm
specific binding (cpm) [8]: -1.5 cpm and -2.5 cpm and 0.5 cpm
specific binding (cpm) [9]: -0.5 cpm and -1.5 cpm
specific binding (cpm) [10]: 4.5 cpm and 6.5 cpm
